# In US10570117B2, “Phenylimidazole compound” (Otsuka Pharmaceutical Factory, Inc., priority 2015, dated 2020):
# Read-outs that look alike come from different tables or passages of the source.
# Assays:
# [1] = Solubility in gastric juice or intestinal juice model fluid (precipitation method using DMSO); format: physicochemical; settings: room temperature
# In short: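 Dissolved amount (μg/mL) quantified by UV of filtrate versus pre-made calibration curves. Precipitation approach: DMSO solutions spiked into pH 1.2 (JP 1st fluid) or pH 6.8 (JP 2nd fluid) medium, shaken at room temperature for 24 h before insolubles were filtered off.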
# [2] = system: lipoprotein lipase (LPL) gene; assay: LPL mRNA elevating action (RT-PCR quantification of LPL mRNA in C2Cl2 cells); format: cell-based, mouse; settings: Mus musculus, 24 h, compound 10 μM, ratio relative to the amount of LPL mRNA in cells with DMSO only, read-out: Rate of increase in LPL mRNA
# In short: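 Read-out is LPL mRNA relative to vehicle (DMSO = 1), measured by reverse transcription and 20-cycle real-time PCR. Cells were the mouse striated-muscle line C2Cl2, treated 24 h with 10 μM compound in DMEM containing 10% FBS.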
# [3] = pH 1.2, simulated gastric fluid, kinetic from dmso stock, 1st fluid for Disintegration Test of Japanese Pharmacopoeia (pH: 1.2), read-out: Solubility (μg/mL) 1st fluid
# [4] = pH 6.8, kinetic from dmso stock, 2nd fluid for Disintegration Test of Japanese Pharmacopoeia (pH: 6.8), read-out: Solubility (μg/mL) 2nd fluid
SMILES,"solubility at 24 h [1, 3]","solubility at 24 h [1, 4]",melting point,fold induction at 10 µM [2]
Fc1cc(C(F)(F)F)cnc1COc1ccc(-c2[nH]c(C3CC(F)(F)C3)nc2Cl)cc1 [Example 397],15.9 µg/mL,< 0.3 µg/mL,162 to 167 °C,4.58
COc1cc(OCc2ncc(C(F)(F)F)cc2F)ccc1-c1[nH]c(C2CC(F)(F)C2)nc1C [Example 399],54.1 µg/mL,3.4 µg/mL,172 to 174 °C,4.68
COc1cc(OCc2ncc(C(F)(F)F)cc2F)ccc1-c1[nH]c(C2CC(F)(F)C2)nc1Br [Example 400],97.1 µg/mL,0.6 µg/mL,192 to 195 °C,4.49
"Oc1cc(OCc2ncc(C(F)(F)F)cc2F)ccc1-c1cnc(-c2ccc(F)nc2)[nH]1 [Example 406, 5-[[3-fluoro-5-(trifluoromethyl)pyridin-2-yl]methoxy]-2-[2-(6-fluoropyridin-3-yl)-1H-imidazol-5-yl]phenol]",> 90 µg/mL,12.4 µg/mL,202 to 207 °C,2.62
Oc1cc(OCc2ncc(C(F)(F)F)cc2F)ccc1-c1[nH]c(-c2ccc(F)nc2)nc1Cl [Example 407],2.7 µg/mL,< 0.3 µg/mL,229 to 233 °C (dec.),1.68
Oc1cc(OCc2ncc(C(F)(F)F)cc2F)ccc1-c1[nH]c(-c2ccc(F)nc2)nc1Br [Example 408],1.9 µg/mL,< 0.4 µg/mL,202 to 204 °C,1.24
COc1cc(OCc2ccc(C(F)(F)F)nc2)ccc1-c1[nH]c(-c2ccc(F)nc2)nc1C#N [Example 409],1.3 µg/mL,1.9 µg/mL,212 to 219 °C,1.34
COc1cc(OCc2ccc(C(F)(F)F)nc2)ccc1-c1nc(-c2ccc(F)nc2)n(C)c1C#N [Example 410],1.1 µg/mL,< 0.3 µg/mL,165 to 167 °C,0.42
"COc1cc(OCc2ncc(C(F)(F)F)cc2F)ccc1-c1[nH]c(-c2ccc(F)nc2)nc1C(F)(F)F [Example 411, 3-fluoro-2-[[4-(2-(6-fluoropyridin-3-yl)-4-(trifluoromethyl)-1H-imidazol-5-yl)-3-methoxyphenoxy]methyl]-5-(trifluoromethyl)pyridine]",3.1 µg/mL,3 µg/mL,181 to 182 °C,1.62
COc1cc(OCc2ccc(C(F)(F)F)nc2)ccc1-c1[nH]c(-c2ccc(F)nc2)nc1C(F)(F)F [Example 412],0.6 µg/mL,1.5 µg/mL,222 to 224 °C,1.41
